Data reported in PubChem BioAssay AID2202554 (NIEHS Division of Translational Toxicology (DTT)).
Results filed as inconclusive are left out. Calls of active or inactive are those of the source. No rule for the calls is given here.

tested on: S. typhimurium/E. coli reverse mutation, colony counts; experiment: Bacterial reverse mutation test (aka Ames test) summary data
Procedure, shortened: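 Revertant colony counts on plates, compared with untreated controls, after about two days of growth. Exposure with or without liver S9 (rat/hamster/mouse), dose range per strain, 20-min 37° C preincubation or direct plate incorporation. Strains: his⁻ Salmonella, trp⁻ E. coli WP2 uvrA pKM101.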

SMILES	outcome
SCCc1cnccn1	inactive; negative
FC(F)(F)C(Cl)Br (centres undefined)	inactive; negative
CCCC(=O)Cl	active; weakly positive
Cc1cc(Br)ccc1NC(=O)CCl	active; positive
CCC1NC(=O)c2cc(S(N)(=O)=O)c(Cl)cc2N1 (centres undefined)	inactive; negative
c1ccc(NNc2ccccc2)cc1	active; positive
O=C=S	active; weakly positive
CC(O)C#N (centres undefined)	active; weakly positive
CN(C)c1ccccc1	inactive; negative
CCN(CC)N=O	active; positive
[Cl-].[Cl-].[Hg+2]	inactive; negative
Cc1c(N)cccc1Cl	inactive; negative
CN(C)CCCN	inactive; negative
Nc1ccc(O)c(N)c1	active; positive
c1ccc2cc(Nc3ccc(Nc4ccc5ccccc5c4)cc3)ccc2c1	active; positive
Cc1cc(O)c2c(c1)C(=O)c1cccc(O)c1C2=O	active; weakly positive
O=C(O)C(Cl)(Cl)Cl	inactive; negative
CC(=O)OCc1ccccc1	inactive; negative
Brc1ccccc1-c1ccccc1	inactive; negative
CCCC(=O)c1cc(O)c(O)cc1O	active; positive
CC(=O)/C=C/c1ccccc1	active; positive
C=CC(=O)OCCOCCOCCOCCOC(=O)C=C	inactive; negative

SMILES	outcome
Brc1ccc(-c2ccccc2)cc1	inactive; negative
CCN	inactive; negative
CCCCOC(=O)c1ccccc1C(=O)OCCCC	inactive; negative
c1ccc2c(c1)CCCC2	inactive; negative
Oc1c(Cl)c(Cl)c(Cl)c(Cl)c1Cl	inactive; negative
O=[N+]([O-])c1c2ccccc2cc2ccccc12	active; positive
NC(=O)Nc1nc2ccccc2[nH]1	active; positive
O=c1cc(-c2ccc(O)cc2)oc2cc(O)cc(O)c12	inactive; negative
ClC1=C(Cl)C2(Cl)C3C(Cl)C(Cl)CC3C1(Cl)C2(Cl)Cl (centres undefined)	inactive; negative
S=P(N1CC1)(N1CC1)N1CC1	active; positive
CC(C)(OOC(C)(C)c1ccccc1)c1ccccc1	inactive; negative
Nc1ccc2ccccc2c1	active; positive
Nc1ccc(N=Nc2cccc(N=Nc3ccc(N)cc3N)c2)c(N)c1	active; positive
COc1ccc2c(c1OC)C(=O)O[C@@H]2[C@H]1c2cc3c(cc2CCN1C)OCO3	inactive; negative
Cc1c(O)cccc1O	inactive; negative
CCC1(c2ccccc2)C(=O)NC(=O)NC1=O	active; weakly positive
c1cc2ccc3cccc4ccc(c1)c2c34	active; positive
Cc1ccc(N)cc1[N+](=O)[O-]	active; positive
CC(C)[C@@H]1CC[C@@H](C)C[C@H]1O	inactive; negative
COC(=O)CCCC(=O)OC	inactive; negative
CNNC	inactive; negative
NC(=O)CCCCC(N)=O	inactive; negative

SMILES	outcome
CCCCCC	inactive; negative
CCCCCCCCC(=O)O	inactive; negative
CNC=O	inactive; negative
Nc1ccccc1-c1ccccc1	active; positive
CCCCNCC	inactive; negative
CC1=CC(=O)CC(C)(C)[C@@]1(O)/C=C/C(C)=C\C(=O)O	inactive; negative
Cc1ccc(C)cc1	inactive; negative
CCCCCCCCCCCCCOC(=O)c1ccccc1C(=O)OCCCCCCCCCCCCC	inactive; negative
COc1cc(C=O)ccc1O	inactive; negative
Cc1cc(-c2ccc(N=Nc3c(S(=O)(=O)O)cc4cc(S(=O)(=O)O)cc(N)c4c3O)c(C)c2)ccc1N=Nc1c(S(=O)(=O)O)cc2cc(S(=O)(=O)O)cc(N)c2c1O	active; positive
CCCCCCc1ccc(-c2ccc(C#N)cc2)cc1	inactive; negative
CC(=O)C1(C)CC2=C(CCCC2(C)C)CC1C (centres undefined)	inactive; negative
CCCCOP(=O)(OCCCC)Oc1ccccc1	inactive; negative
Cc1occc(=O)c1O	active; weakly positive
Cc1ccc(N)cc1C	active; positive
Cc1ccc(C(=O)O)cc1	inactive; negative
CCCSC(=O)Cl	active; positive
CN[C@@H]1[C@H](O[C@H]2[C@H](O[C@H]3[C@H](O)[C@@H](O)[C@H](NC(=N)N)[C@@H](O)[C@@H]3N=C(N)N)O[C@@H](C)[C@]2(O)C=O)O[C@@H](CO)[C@H](O)[C@H]1O	active; weakly positive
CCCCOCCOP(=O)(OCCOCCCC)OCCOCCCC	inactive; negative
CCCCCCCCC1CO1 (centres undefined)	inactive; negative
